Data from article PMC11188489, “Pharmacokinetic assessment of tacrolimus in combination with deoxyschizandrin in rats” (Frontiers in Pharmacology, 2024).

Experiments:
[1] = Stability of the two analytes in rat plasma under different storage conditions; assay type: in vitro ADME; conditions: n=5
Method: To prepare the stock solution, approximately 2.00 mg of Tac, deoxyschizandrin and IS were accurately weighed and dissolved in methanol, respectively. The stock solutions of Tac and deoxyschizandrin with a final concentration of 1.00 mg/mL was obtained, and the IS stock solution was diluted to 100.00 ng/mL using methanol before use. The stock solutions were aliquoted and stored at −80°C. Combined working solutions were prepared by diluting the stock solution using 10% aqueous methanol at the following concentrations: 5.00, 10.00, 20.00, 50.00, 100.00, 200.00, 500.00, 1,000.00, and 2,000.00 ng/mL. Blank rat plasma was used to prepare the calibration standards. Quality-control (QC) samples of two analytes were prepared separately in the same manner at three concentrations, namely, 10 (low concentration), 100 (middle), 1,000 ng/mL (high), and all QC samples were stored at −80°C.
The methodology validation was completed according to FDA guidelines and Chinese Pharmacopoeia (2015 edition), and the linearity, inter- and intra-precision and accuracy, matrix effect and extraction recovery, stability and specificity of this method were validated according to previous study ([Lu et al., 2022]; [Wang et al., 2022]; [Shu et al., 2016]).

[2] = Pharmacokinetics of Tac in rats alone or co-administered with deoxyschizandrin or Wuzhi capsule (UHPLC-MS/MS of plasma); assay type: in vivo, SD rats; conditions: for AUMC0→t / AUC(0-inf) / AUC(0-t) / Cmax / MRT / Tmax / half-life: rat plasma; for AUC(0-inf) / AUC(0-t) / Cmax / MRT / Tmax / half-life: male, SD, rat, plasma
Method: The mobile phase A was acetonitrile, and mobile phase B was 0.1% formic acid in water, and the initial mobile phase of gradient elution program was consisted of 60% phase A and 40% phase B. The sample injection volume was set at 10 μL. Gradient elution program was supplied in Supplementary Table S1.
The mass spectrometry detection was achieved on an Agilent 6460A mass spectrometer with ESI source. […] The settings of the mass spectrometer source were as follows: capillary voltage 4,000 V, sheath gas flow 12 L/min, temperature 400°C, dry gas (nitrogen) flow 10 L/min and temperature 350°C, nebulizer pressure 45 psi. All analytes were detected in positive ionization mode. Collision gas (high purity liquid nitrogen) was set at 0.25 MPa. The structures of both two analytes and IS are display in Figure 1.
The pretreatment was performed for the plasma sample by one-step protein precipitation, Briefly, 100 μL sample was transferred into a 1.5 mL EP tube prior to adding with 300 μL methanol(containing 200 ng/mL IS). The mixture was vortex-mixed for 30 s before centrifugation at 17,400 g for 10 min at room temperature, and 100 μL of the supernatant was diluted with 100 μL of acetonitrile (v/v, 1:1) Then, a 10 μL aliquoted of diluted solution was injected into the UHPLC-MS/MS system for analysis.
The protocol of the animal study was approved by the Experimental Animal Ethics Committee of the Shanghai University of Traditional Chinese Medicine. Specific Pathogen Free (SPF) grade SD rats, male, 8 weeks old, 200–250 g, were obtained from the animal experiment center of Shanghai University of Traditional Chinese Medicine. After passing quarantine, the rats were adaptive fed for 2 days. Rats were fasted for 12–14 h, followed by the initiation of pharmacokinetic study of Tac and deoxyschizandrin. This animal study was carried out in accordance with the National Institutes of Health Guide for the Care and Use of Laboratory animals.
In this study, 42 rats were divided equally into seven groups of six rats each, numbered NG2201-NG2207. Among them, the NG2201 and NG2202 group was dosed with 150 mg/kg deoxyschizandrin alone to study the PK of deoxyschizandrin in rats after single and multiple doses; the NG2203 group was administrate dosed with 1.0 mg/kg of Tac; the NG2204-NG2206 groups were dosed with 75, 150, and 300 mg/kg of deoxyschizandrin plus 1.0 mg/kg Tac, respectively, and the NG2207 group was dosed with the Wuzhi capsule (approximately equal to 150 mg/kg of deoxyschizandrin) plus 1.0 mg/kg of Tac ([Teng et al., 2022]). The detailed dosing regimen is shown in Table 2, and all dose in this experiment were calculated according to clinical dose. Blood samples (approximately 300 μL for each) for PK analysis were collected into lithium–heparin tubes. The plasma sampling schedules are outlined below: Blood samples were drawn pre-dose, at 5, 10, 20 and 30 min, and at 1, 1.5, 2, 4, 8 and 24 h after drug administration. The blood samples were centrifuged at 5,000 g for 15 min at 4°C to collect plasma samples, which were placed −80 refrigerator.
The rat plasma collected from each group was pretreated according to the method in section 2.5, and exposure levels of Tac and deoxyschizandrin were determined using the above established UHPLC-MS/MS method and the PKs were calculated using DAS software using non-compartment model (version 2.0, China Pharmacological Society). The data were presented as mean ± SD.

[3] = design: method as in Abushammala, 2021; conditions: ref Abushammala, 2021; cited from earlier work
[4] = 1 mg/kg, NG2203: 1.0 mg/kg of Tac alone
[5] = 1 mg/kg, NG2204: 1.0 mg/kg of Tac plus 75 mg/kg deoxyschizandrin
[6] = 1 mg/kg, NG2205: 1.0 mg/kg of Tac plus 150 mg/kg deoxyschizandrin
[7] = 1 mg/kg, NG2206: 1.0 mg/kg of Tac plus 300 mg/kg deoxyschizandrin
[8] = 1 mg/kg, NG2207: 1.0 mg/kg of Tac plus Wuzhi capsule (equivalent to 150 mg/kg deoxyschizandrin)
[9] = 1 mg/kg, Tac 1 mg/kg alone (NG2203)
[10] = 1.0 mg/kg of Tac plus Wuzhi capsule (equivalent to 150 mg/kg deoxyschizandrin)

Auto-sampler stability (24h, 4℃) Mean ± SD ([1]; Nominal Conc. 10 ng/mL): 10.23±0.51
Bench-top stability (8h, RT) Mean ± SD ([1]; Nominal Conc. 10 ng/mL): 10.39±0.41
Frozen-thaw stability (3 times) Mean ± SD ([1]; Nominal Conc. 10 ng/mL): 10.55±0.54
Long-term stability (1 month, -80℃) Mean ± SD ([1]; Nominal Conc. 10 ng/mL): 10.35±0.14
Auto-sampler stability (24h, 4℃) Mean ± SD ([1]; Nominal Conc. 100 ng/mL): 103.90±2.74
Bench-top stability (8h, RT) Mean ± SD ([1]; Nominal Conc. 100 ng/mL): 102.33±1.53
Frozen-thaw stability (3 times) Mean ± SD ([1]; Nominal Conc. 100 ng/mL): 110.23±5.21
Long-term stability (1 month, -80℃) Mean ± SD ([1]; Nominal Conc. 100 ng/mL): 101.09±1.01
Auto-sampler stability (24h, 4℃) Mean ± SD ([1]; Nominal Conc. 1000 ng/mL): 1010.05±13.85
Bench-top stability (8h, RT) Mean ± SD ([1]; Nominal Conc. 1000 ng/mL): 1009.93±11.80
Frozen-thaw stability (3 times) Mean ± SD ([1]; Nominal Conc. 1000 ng/mL): 1025.45±12.50
Long-term stability (1 month, -80℃) Mean ± SD ([1]; Nominal Conc. 1000 ng/mL): 1008.72±11.30
increase of C max of Tac after co-administered deoxyschizandrin ([2]; 75, 150, 300 mg/kg deoxyschizandrin plus 1 mg/kg Tac vs Tac alone, rats): 3-4 fold
AUMC0→t ([2]; NG2203: 1.0 mg/kg of Tac alone): 613.05 ± 182.15 ng. h2/mL
AUMC0→t ([2]; NG2204: 1.0 mg/kg of Tac plus 75 mg/kg deoxyschizandrin): 2107.22 ± 701.25 ng. h2/mL
AUMC0→t ([2]; NG2205: 1.0 mg/kg of Tac plus 150 mg/kg deoxyschizandrin): 1915.12 ± 621.91 ng. h2/mL
AUMC0→t ([2]; NG2206: 1.0 mg/kg of Tac plus 300 mg/kg deoxyschizandrin): 3,315.05 ± 1,100.65 ng. h2/mL
AUMC0→t ([2]; NG2207: 1.0 mg/kg of Tac plus Wuzhi capsule (equivalent to 150 mg/kg deoxyschizandrin)): 2395.69 ± 1,225.18 ng. h2/mL
mean C max lower with Wuzhi capsule compared with deoxyschizandrin ([2]; Tac 1.0 mg/kg plus Wuzhi capsule vs plus 150 mg/kg deoxyschizandrin, rats): 11.23 ng/mL
AUC(0-inf) [2, 4]: 105 ± 31.3 ng·h/mL
AUC(0-t) [2, 4]: 95.1 ± 32.6 ng·h/mL
Cmax [2, 4]: 14.3 ± 4.73 ng/mL
MRT [2, 4]: 6.54 ± 0.55 h
Tmax [2, 4]: 1.33 ± 0.52 h
half-life [2, 4]: 7.3 ± 3.06 h
AUC(0-inf) [2, 5]: 351 ± 117 ng·h/mL
AUC(0-t) [2, 5]: 314 ± 99.4 ng·h/mL
Cmax [2, 5]: 43.2 ± 13.7 ng/mL
MRT [2, 5]: 6.69 ± 0.25 h
Tmax [2, 5]: 1.17 ± 0.41 h
half-life [2, 5]: 7.31 ± 1.04 h
AUC(0-inf) [2, 6]: 331 ± 98 ng·h/mL
AUC(0-t) [2, 6]: 315 ± 92.2 ng·h/mL
Cmax [2, 6]: 54.5 ± 14.4 ng/mL
MRT [2, 6]: 6.02 ± 0.53 h
Tmax [2, 6]: 1.08 ± 0.49 h
half-life [2, 6]: 5.04 ± 1.95 h
AUC(0-inf) [2, 7]: 534 ± 176 ng·h/mL
AUC(0-t) [2, 7]: 486 ± 149 ng·h/mL
Cmax [2, 7]: 67.4 ± 18.6 ng/mL
MRT [2, 7]: 6.76 ± 0.31 h
Tmax [2, 7]: 0.75 ± 0.27 h
half-life [2, 7]: 6.59 ± 1.62 h
AUC(0-inf) [2, 8]: 388 ± 217 ng·h/mL
AUC(0-t) [2, 8]: 340 ± 193 ng·h/mL
Cmax [2, 8]: 43.2 ± 21.9 ng/mL
MRT [2, 8]: 7.23 ± 1.04 h
Tmax [2, 8]: 1.5 ± 0.55 h
half-life [2, 8]: 8.27 ± 2.2 h
AUC(0-inf) [2, 9]: 105 ± 31.3 ng·h/mL
AUC(0-t) [2, 9]: 95.1 ± 32.6 ng·h/mL
AUC(0-t) ([2]; 1 mg/kg, Tac alone (NG2203)): 95.1 ± 32.6 ng·h/mL
AUC(0-inf) [2, 10]: 388 ± 217 ng·h/mL
AUC(0-t) [2, 10]: 340 ± 193 ng·h/mL
AUC(0-t) ([2]; Tac after co-administration of deoxyschizandrin (NG2205)): 315 ± 92.2 ng·h/mL
AUC(0-t) ([2]; Tac co-administrated with deoxyschizandrin (NG2205)): 315 ± 92.2 ng·h/mL
Structure (SMILES): C=CC[C@@H]1/C=C(\C)C[C@H](C)C[C@H](OC)[C@H]2O[C@@](O)(C(=O)C(=O)N3CCCC[C@H]3C(=O)O[C@H](/C(C)=C/[C@@H]3CC[C@@H](O)[C@H](OC)C3)[C@H](C)[C@@H](O)CC1=O)[C@H](C)C[C@@H]2OC [Tac, Tacrolimus]
average bioavailability [3]: 25%
